In patent US5084082A, “Soybean plants with dominant selectable trait for herbicide resistance” (priority 1990, dated 1992):
Entries after “also recorded” stand apart in the source; their conditions may differ.

System: W20
Experiment: Seed soak test with Compound 8
Format: in vivo, soybean
Details: W20, seeds soaked 16 hours in 2 ppm solution
Method: The second screening protocol was carried out as follows: samples of seed from W20 were tested for preemergence tolerance to Compound 8 by soaking seeds in a 2.0 ppm buffered solution of Compound 8 for 16 hours, rinsing, and planting in flats in a greenhouse.
The original W4-4 M2 plant was allowed to self pollinate, mature, and produced a family of M3 seeds. An M3 progeny test was then conducted to determine if the new resistance phenotype was heritable and if the M3 family was true-breeding or segregating for the new resistance trait. The M3 progeny of W4-4 were screened for resistance with the same seed soak technique used to select the original W4-4 M2 plant. Twenty seeds each of the W4-4 M3 family, W20 line, and Williams line were soaked for 16 hours in a solution of 2 ppm of Compound 8. Twenty additional seeds of Williams were soaked for 16 hours in plain tap water as a control treatment. Treated seeds were then washed for two minutes in running water. Each seed was then planted in a separate pot for ease of observation.

COC(=O)c1cccnc1S(=O)(=O)NC(=O)Nc1nc(OC)cc(OC)n1 [Compound 8, Methyl 2-[[[[(4,6-dimethoxy-2-pyrimidinyl)amino]carbonyl]amino]sulfonyl]-3-pyridinecarboxylate]
seedling development after seed soak: uniformly inhibit growth of W20 beyond the stage of emergence and cotyledon expansion; also recorded: had not started to form true leaves
